Measured values reported in patent publication US8993566B2, “Quinoline compound composing 1,2,4-triazine-dione and use thereof” (Wuhan Shengyun Biopharma Co., Ltd., priority 2012, dated 2015).
Values after ≈ are worked out from the molar mass of the structure shown. Like-named read-outs stand apart in the source and are kept apart here.

What was measured:
[1] = tested on: human colon cancer cell HT-29; assay: In vitro anti-tumor cell activity (MTT), HT-29; format: cell-based; settings: for IC50: Homo sapiens, read-out: HT-29 IC50
Description: (§1) The digested cell solution was poured into a centrifuge tube, to which a culture media was added to stop the digestion. The centrifuge tube was centrifuged at 800 r/min for 10 min, the supernatant was removed gently and then 5 mL of the culture media was added. The cells were pipetted and mixed homogeneously. 10 μL cell suspension was taken into a cell counting plate for counting, wherein the cell concentration was adjusted to 10^4 cells/well. To each well of a 96-well plate, except for A1 well as blank control, was added 100 μL of the cell suspension. The 96-well plate was placed in an incubator and cultivated for 24 h. […] The 96-well plate was placed in an incubator and cultivated for 72 h. (3) The culture media containing the compounds in the 96-well plate was removed, and the cells were washed with phosphate buffered solution (PBS) twice. To each well was added 100 μL MTT (tetrazole) (0.5 mg/mL), after placing the plate in an incubator to incubate for 4 h, the MTT solution was removed and 100 μL dimethyl sulfoxide was added. The reaction product of survival cells with MTT, i.e. formazan, was dissolved completely by oscillation on a magnetic oscillator, and then placed into a microplate reader to measure the results, and the IC50 values of compounds could be deduced by Bliss method.

[2] = tested on: human gastric cancer cell MKN-45; assay: In vitro anti-tumor cell activity (MTT), MKN-45; format: cell-based; settings: for IC50: Homo sapiens, read-out: MKN-45 IC50
Description: as §1

[3] = biological target: T1, c-Met kinase (His-tagged recombinant human Met (amino acids 974-end)) (Homo sapiens, UniProt P08581); assay: c-Met Enzyme Activity Inhibition Assay (ELISA); format: biochemical; settings: 50 pM c-Met, 5 μM ATP, room temperature 20 min; for IC50: read-out: IC50 for inhibiting c-Met kinase (converted)
T1 construct: His-tagged recombinant human Met (amino acids 974-end); His
Description: c-Met Enzyme Activity Inhibition Assay
The assay for the determination of c-Met kinase activity is based on an enzyme linked immunosorbant assay (ELISA). A compound of Formula I, 50 pM c-Met (His-tagged recombinant human Met (amino acids 974-end), expressed by baculovirus), and 5 μM ATP in an assay buffer (25 mM MOPS, pH 7.4, 5 mM MgCl2, […], 100 μM sodium orthovanadate, 0.01% Triton X-100, 1 mM DTT, final DMSO concentration 1% (v/v)) were incubated on a plate coated with 0.25 mg/mL POT at room temperature for 20 min. The reaction mixture was removed by washing and the phosphorylated polymer substrate was detected with 0.2 μg/mL phosphotyrosine specific monoclonal antibody (PY20) conjugated to horseradish peroxidase (HRP). After the addition of 1M phosphoric acid to stop the development, the chromogenic substrate (TMB) color was quantitated by spectrophotometry at 450 nm.

[4] = tested on: human hepatoma carcinoma cell line SMMC-7721; assay: In vitro anti-tumor cell activity (MTT), SMMC-7721; format: cell-based; settings: for IC50: Homo sapiens, read-out: SMMC-7721 IC50
Description: as §1

[5] = tested on: human nonsmall-cell lung cancer cell H460; assay: In vitro anti-tumor cell activity (MTT), H460; format: cell-based; settings: for IC50: Homo sapiens, read-out: H460 IC50
Description: as §1

[6] = HT-29 cells, MTT, 72 h, Bliss method
[7] = MKN-45 cells, MTT, 72 h, Bliss method
[8] = SMMC-7721 cells, MTT, 72 h, Bliss method
[9] = NCI-H460, H460 cells, MTT, 72 h, Bliss method
[10] = H460 cells, MTT, 72 h, Bliss method

T1 sequence (P08581 956-1390): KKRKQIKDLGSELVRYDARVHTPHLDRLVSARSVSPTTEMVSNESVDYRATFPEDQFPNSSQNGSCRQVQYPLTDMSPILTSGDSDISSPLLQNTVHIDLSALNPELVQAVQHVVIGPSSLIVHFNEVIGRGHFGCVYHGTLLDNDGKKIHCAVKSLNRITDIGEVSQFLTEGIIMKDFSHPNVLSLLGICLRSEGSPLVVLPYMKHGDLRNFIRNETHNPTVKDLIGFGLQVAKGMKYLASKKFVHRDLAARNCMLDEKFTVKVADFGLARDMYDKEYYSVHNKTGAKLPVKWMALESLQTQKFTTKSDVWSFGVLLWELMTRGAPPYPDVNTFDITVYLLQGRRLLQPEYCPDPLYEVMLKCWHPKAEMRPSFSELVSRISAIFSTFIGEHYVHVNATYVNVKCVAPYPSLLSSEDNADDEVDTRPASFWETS

COc1cc2c(Oc3ccc(NC(=O)c4nn(-c5ccccc5)c(=O)n(C)c4=O)cc3F)ccnc2cc1OCCCN1CCCC1 [Example 1, N-[3-fluoro-4-[6-methoxy-7-[3-(tetrahydropyrrol-1-yl)propyloxy]quinolin-4-oxy]phenyl]-2-phenyl-4-methyl-3,5-dioxo-2,3,4,5-tetrahydro-1,2,4-triazine-6-carboxamide]
IC50 ([1]; HT-29, 72 h): 0.12 µg/mL (≈ 0.187 µM) | IC50 ([2]; MKN-45, 72 h): 0.042 µg/mL (≈ 0.0656 µM) | IC50 [3]: 71.8 nM | IC50 ([4]; SMMC-7721, 72 h): 0.18 µg/mL (≈ 0.281 µM) | IC50 ([5]; NCI-H460, 72 h): 0.26 µg/mL (≈ 0.406 µM)

COc1cc2c(Oc3ccc(NC(=O)c4nn(-c5ccccc5)c(=O)n(C)c4=O)cc3F)ccnc2cc1OCCCN1CCOCC1 [Example 3, N-[3-fluoro-4-[6-methoxy-7-[3-(4-morpholinyl)propyloxy]quinolin-4-oxy]phenyl]-2-phenyl-4-methyl-3,5-dioxo-2,3,4,5-tetrahydro-1,2,4-triazine-6-carboxamide]
IC50 [1, 6]: 0.14 µg/mL (≈ 0.213 µM) | IC50 [2, 7]: 0.059 µg/mL (≈ 0.0898 µM) | IC50 [3]: 88.3 nM | IC50 [4, 8]: 0.1 µg/mL (≈ 0.152 µM) | IC50 [5, 9]: 0.17 µg/mL (≈ 0.259 µM)

COc1cc2c(Oc3ccc(NC(=O)c4nn(-c5ccccc5)c(=O)n(C)c4=O)cc3F)ccnc2cc1OCCCN1CCN(C)CC1 [Example 5, N-[3-fluoro-4-[6-methoxy-7-[3-(4-methyl-1-piperazinyl)propyloxy]oxy]phenyl)-2-phenyl-4-methyl-3,5-dioxo-2,3,4,5-tetrahydro-1,2,4-triazine-6-carboxamide]
HT-29 IC50 [1, 6]: 0.12 µg/mL | MKN-45 IC50 [2, 7]: 0.12 µg/mL | IC50 for inhibiting c-Met kinase [3]: 0.28 µg/mL | SMMC-7721 IC50 [4, 8]: 0.15 µg/mL | H460 IC50 [5, 10]: 0.094 µg/mL

COc1cc2c(Oc3ccc(NC(=O)c4nn(-c5ccc(F)cc5)c(=O)n(C)c4=O)cc3F)ccnc2cc1OCCCN1CCCC1 [Example 6, N-[3-fluoro-4-[6-methoxy-7-[3-(1-pyrrolidyl]propyloxy]quinolin-4-oxy]phenyl]-2-(4-fluorophenyl)-4-methyl-3,5-dioxo-2,3,4,5-tetrahydro-1,2,4-triazine-6-carboxamide]
IC50 [1, 6]: 0.06 µg/mL (≈ 0.0911 µM) | IC50 [2, 7]: 0.021 µg/mL (≈ 0.0319 µM) | IC50 [3]: 48.6 nM | IC50 [4, 8]: 0.11 µg/mL (≈ 0.167 µM) | IC50 [5, 9]: 0.032 µg/mL (≈ 0.0486 µM)

COc1cc2c(Oc3ccc(NC(=O)c4nn(-c5ccc(Br)cc5)c(=O)n(C)c4=O)cc3F)ccnc2cc1OCCCN1CCCCC1 [Example 7]
HT-29 IC50 [1, 6]: 0.27 µg/mL | MKN-45 IC50 [2, 7]: 0.033 µg/mL | IC50 for inhibiting c-Met kinase [3]: 0.048 µg/mL | SMMC-7721 IC50 [4, 8]: 0.21 µg/mL | H460 IC50 [5, 10]: 0.13 µg/mL

COc1cc2c(Oc3ccc(NC(=O)c4nn(-c5ccc(F)cc5)c(=O)n(C)c4=O)cc3F)ccnc2cc1OCCCN1CCOCC1 [Example 8, N-[3-fluoro-4-[6-methoxy-7-[3-(4-morpholinyl)propyloxy]quinolin-4-oxy]phenyl]-2-(4-fluorophenyl)-4-methyl-3,5-dioxo-2,3,4,5-tetrahydro-1,2,4-triazine-6-carboxamide]
IC50 [1, 6]: 0.28 µg/mL (≈ 0.415 µM) | IC50 [2, 7]: 0.077 µg/mL (≈ 0.114 µM) | IC50 [3]: 623 nM | IC50 [4, 8]: 0.42 µg/mL (≈ 0.623 µM) | IC50 [5, 9]: 0.33 µg/mL (≈ 0.489 µM)

COc1cc2c(Oc3ccc(NC(=O)c4nn(-c5ccc(F)cc5)c(=O)n(C)c4=O)cc3F)ccnc2cc1OCCCN1CCC(C)CC1 [Example 9, N-[3-fluoro-4-[6-methoxy-7-[3-(4-methyl-1-piperidinyl)propyloxy]quinolin-4-oxy]phenyl]-2-(4-fluorophenyl)-4-methyl-3,5-dioxo-2,3,4,5-tetrahydro-1,2,4-triazine-6-carboxamide]
IC50 [1, 6]: 0.21 µg/mL (≈ 0.306 µM) | IC50 [2, 7]: 0.065 µg/mL (≈ 0.0947 µM) | IC50 [3]: 233 nM | IC50 [4, 8]: 0.09 µg/mL (≈ 0.131 µM) | IC50 [5, 9]: 0.17 µg/mL (≈ 0.248 µM)

COc1cc2c(Oc3ccc(NC(=O)c4nn(-c5ccc(F)cc5)c(=O)n(C)c4=O)cc3F)ccnc2cc1OCCCN1CCN(C)CC1 [Example 10, N-[3-fluoro-4-[6-methoxy-7-[3-(4-methyl-1-piperazinyl)propyloxy]quinolin-4-oxy]phenyl]-2-(4-fluorophenyl)-4-methyl-3,5-dioxo-2,3,4,5-tetrahydro-1,2,4-triazine-6-carboxamide]
IC50 [1, 6]: 0.093 µg/mL (≈ 0.135 µM) | IC50 [2, 7]: 0.0065 µg/mL (≈ 0.00945 µM) | IC50 [3]: 106 nM | IC50 [4, 8]: 0.11 µg/mL (≈ 0.16 µM) | IC50 [5, 9]: 0.0081 µg/mL (≈ 0.0118 µM)

COc1cc2c(Oc3ccc(NC(=O)c4nn(-c5ccc(C)cc5)c(=O)n(C)c4=O)cc3F)ccnc2cc1OCCCN1CCN(C)CC1 [Example 15, N-[3-fluoro-4-[6-methoxy-7-[3-(4-methyl-1-piperazinyl)propyloxy]quinolin-4-oxy]phenyl]-2-(4-methylphenyl)-4-methyl-3,5-dicarbonyl-2,3,4,5-tetrahydro-1,2,4-triazine-6-carboxamide;]
HT-29 IC50 [1, 6]: 0.5 µg/mL | IC50 for inhibiting c-Met kinase [3]: 0.009 µg/mL | SMMC-7721 IC50 [4, 8]: 0.79 µg/mL | H460 IC50 [5, 10]: 0.18 µg/mL

COc1cc2c(Oc3ccc(NC(=O)c4nn(-c5ccc(F)c(F)c5)c(=O)n(C)c4=O)cc3F)ccnc2cc1OCCCN1CCCC1 [Example 16, N-[3-fluoro-4-[6-methoxy-7-[3-(1-pyrrolidyl)propyloxy]quinolin-4-oxy]phenyl]-2-(3,4-difluorophenyl)-4-methyl-3,5-dioxo-2,3,4,5-tetrahydro-1,2,4-triazine-6-carboxamide]
IC50 [1, 6]: 0.3 µg/mL (≈ 0.443 µM) | IC50 [2, 7]: 0.027 µg/mL (≈ 0.0399 µM) | IC50 [3]: 783 nM | IC50 [4, 8]: 0.34 µg/mL (≈ 0.502 µM) | IC50 [5, 9]: 0.22 µg/mL (≈ 0.325 µM)

COc1cc2c(Oc3ccc(NC(=O)c4nn(-c5ccc(F)c(F)c5)c(=O)n(C)c4=O)cc3F)ccnc2cc1OCCCN1CCCCC1 [Example 17, N-[3-fluoro-4-[6-methoxy-7-[3-(1-piperidinyl)propyloxy]quinolin-4-oxy]phenyl]-2-(3,4-difluorophenyl)-4-methyl-3,5-dioxo-2,3,4,5-tetrahydro-1,2,4-triazine-6-carboxamide]
IC50 [1, 6]: 0.3 µg/mL (≈ 0.434 µM) | IC50 [2, 7]: 0.027 µg/mL (≈ 0.0391 µM) | IC50 [3]: 420 nM | IC50 [4, 8]: 0.19 µg/mL (≈ 0.275 µM) | IC50 [5, 9]: 0.22 µg/mL (≈ 0.319 µM)

N-[3-fluoro-4-[6-methoxy-7-[3-(1-piperidinyl)propyloxy]quinolin-4-oxy]phenyl]-2-(4-methylphenyl)-4-methyl-3,5-dicarbonyl-2,3,4,5-tetrahydro-1,2,4-triazine-6-carboxamide [Example 12]
HT-29 IC50 [1, 6]: 0.11 µg/mL | IC50 for inhibiting c-Met kinase [3]: 0.18 µg/mL | SMMC-7721 IC50 [4, 8]: 0.74 µg/mL | H460 IC50 [5, 10]: 0.12 µg/mL

N-[3-fluoro-4-[6-methoxy-7-[3-(1-piperidinyl)propyloxy]quinolin]-4-oxy]phenyl]-2-phenyl-4-benzyl-3,5-dicarbonyl-2,3,4,5-tetrahydro-1,2,4-triazine-6-carboxamide [Example 46]
HT-29 IC50 [1, 6]: 0.3 µg/mL | MKN-45 IC50 [2, 7]: 0.1 µg/mL | SMMC-7721 IC50 [4, 8]: 1.4 µg/mL | H460 IC50 [5, 10]: 0.8 µg/mL

N-[3-fluoro-4-[6-methoxy-7-[3-(4-morpholinyl)propyloxy]quinolin-4-oxy]phenyl]-2-(4-methylphenyl)-4-methyl-3,5-dicarbonyl-2,3,4,5-tetrahydro-1,2,4-triazine-6-carboxamide [Example 13]
HT-29 IC50 [1, 6]: 0.19 µg/mL | IC50 for inhibiting c-Met kinase [3]: 0.25 µg/mL | SMMC-7721 IC50 [4, 8]: 0.67 µg/mL | H460 IC50 [5, 10]: 0.28 µg/mL

N-[3-fluoro-4-[6-methoxy-7-[3-(4-morpholinyl)propyloxy]quinolin]-4-oxy]phenyl]-2-(2,4-dichlorophenyl)-4-benzyl-3,5-dicarbonyl-2,3,4,5-tetrahydro-1,2,4-triazine-6-carboxamide [Example 43]
HT-29 IC50 [1, 6]: 0.32 µg/mL | MKN-45 IC50 [2, 7]: 0.07 µg/mL | SMMC-7721 IC50 [4, 8]: 1.4 µg/mL | H460 IC50 [5, 10]: 0.65 µg/mL
